According to patent publication US20240059693A1, “FUSED BICYCLIC PYRAZOLE DERIVATIVES AND METHODS OF USE THEREOF FOR THE TREATMENT OF HERPESVIRUSES” (Merck Sharp & Dohme LLC, priority 2020, published 2024):
Where two headings read alike, the source gives them in different places.

Legend:
[1] = molecular target: T1, Human cytomegalovirus DNA polymerase (Human cytomegalovirus, UniProt P08546); test: HCMV polymerase assay (AlphaLISA); format: biochemical; details: HCMV DNA polymerase 0.2 nM, 60 minutes at 37° C.; read-out: CMV (IC50)
T1 construct: made in house; host or cells: SF21 insect cells (baculovirus vector)
Summary of the method: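 Baculovirus/SF21-expressed polymerase (HCMV 0.2 nM; VZV 0.4 nM) pre-incubated 30 min at room temperature with compound in HEPES pH 7.5 buffer, then 60 min at 37 °C with 1.6 nM DIG-primer/template, sub-nM to 24 nM dNTPs and 0.8 nM biotin-dUTP. AlphaLISA detection; IC50 from 4-parameter fit.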

[2] = molecular target: T2, varicella zoster virus DNA polymerase (Varicella-zoster virus, UniProt P09252); test: VZV polymerase assay (AlphaLISA); format: biochemical; details: VZV DNA polymerase 0.4 nM, 60 minutes at 37° C.
T2 construct: made in house; host or cells: SF21 insect cells (baculovirus vector)
Experimental: Human cytomegalovirus and varicella zoster virus DNA polymerases were expressed via baculovirus vector in SF21 cells and purified. Heterodimeric nucleic acid substrate used in the herpesvirus polymerase reactions was generated by annealing a 59-mer template to a 17-mer digoxigenin-labeled primer. Polymerase (HCMV final concentration of 0.2 nM; VZV final concentration of 0.4 nM) was combined with an inhibitor compound or DMSO in assay buffer (10 mM HEPES, pH 7.5, 25 mM KCl, 25 mM NaCl, 5 mM MgCl2, 5% glycerol, 0.67 mg/ml bovine serum albuminutes, and 1 mM tris(2-carboxyethyl)phosphine), and this mixture was pre-incubated for 30 minutes at room temperature in 384-well microtiter plates. The polymerization reaction was initiated by the addition of template/primer substrate (final concentration: 1.6 nM), and dNTPs (final concentration: 24 nM dCTP, 24 nMdGTP, 16 nM dATP, 16 nM dTTP, and 0.8 nM biotin-dUTP). After 60 minutes incubation at 37° C., reactions were terminated with quench buffer (25 mM HEPES pH 7.5, 100 mM NaCl, 0.25% Tween-20, 12 mM EDTA, and 1 mg/ml bovine serum albumin). Incorporation of biotinylated UTP was detected with 2.5-ug/ml anti-DIG AlphaLISA acceptor beads and 5-10 ug/ml streptavidin AlphaLISA donor beads (Perkin Elmer). Compound effects were normalized to the window defined by the controls (DMSO only and pre-quenched wells) and were fit using a 4-parameter algorithm to report an IC50.

HCMV Strain AD169 = test: Viral qPCR assay, HCMV in MRC-5 cells; format: cell-based, Human cytomegalovirus; details: read-out: CMV MRC5 Cell (EC50)
Summary of the method: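 Viral genome copies, quantified by TaqMan qPCR with a plasmid standard curve after ~72 h infection of MRC-5 cells with AD169 at 0.05-0.1 pfu/cell, served as readout; PPIA normalisation used in one format. Compounds run as 10-point 3-fold series, in standard or 50% FBS media; EC50 by 4-parameter fit.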

VZV [3] = test: Viral qPCR assay, VZV in MRC5 cells; format: cell-based, varicella zoster virus; details: read-out: VZV MRC5 Cell (IC50)
Summary of the method: (§1)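 EC50 from a 4-parameter fit of viral genome copies, quantified by TaqMan qPCR on proteinase K lysates against a plasmid standard, with or without PPIA normalization. Infected cells (VZV 0.04-0.1 pfu/cell in MeWo/MRC5; HSV-1 0.0005-0.004 pfu/cell in Vero/MRC5) were exposed to 10-point 3-fold dilutions for ~72 h at 37 °C.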

HSV-1 Strain F [4] = test: Viral qPCR assay, HSV-1 in Vero cells; format: cell-based, Herpes Simplex Virus type 1; details: read-out: HSV1 VERO Cell (EC50)
Experimental: (§2) MRCS cells, Vero cells, and MeWo cells were obtained from ATCC and were maintained at 37° C./5% CO2/90% relative humidity in Minimal Essential Medium with 10% fetal bovine serum, […] L-glutamine, 100 units/ml penicillin and 100 ug/ml streptomycin. Assay plates were prepared by dispensing compounds dissolved in DMSO into wells of 384 well collagen-coated plates using an ECHO acoustic dispenser. Each compound was tested in a 10-point, serial 3-fold dilution. Controls included uninfected cells and infected cells treated only with DMSO. Assays were initiated by mixing selected cells, in suspension, with virus, and dispensing 50 μl/well infected cells to pre-plated compounds. Plates were incubated at 37° C./5% CO2/90% relative humidity for ˜72 hrs to permit genomic replication, and infected cells were lysed by the addition of an equal volume of lysis buffer (10 mM Tris-HCl, pH8, 50 mM KCl, 2 mM MgCl2, 0.45% NP-40, 0.45% Tween-20, and 100 μg/ml proteinase K). An aliquot of the lysate was transferred to a 384-well PCR plate and incubated at 56° C. for 1 hour and then at 95° C. for 10 min. Levels of a viral gene and of the cellular control, PPIA (Thermo Fisher Assay ID=Hs04194521_s1), were measured in separate 10 μL qPCR assays using TaqMan® Gene Expression Master Mix (Applied Biosystems), and an 7900HT Fast Real-Time PCR System with 384-Well Block Module. 7-point, serial 10-fold dilutions of a plasmid standard were run on each plate to generate a standard curve, and genome copies numbers were calculated by plotting experimental Ct onto linear regression of the standard curve. Viral genome copy numbers were normalized by cellular control copy number, and compound effects were normalized to the window defined by the controls. Calculated % effects were fit using a 4-parameter algorithm, and EC50 was reported.
as §2, with “gene” for “gene and of the cellular control, PPIA (Thermo Fisher Assay ID=Hs04194521_s1),”, “in” for “in separate”, “Compound effects on viral” for “Viral”, “number” for “numbers were normalized by cellular control copy number, and compound effects”
(§3) VZV: Strain Street was maintained as an infected cell stock in MRC-5 cells. It was assayed in MeWo or MRCS cells and was used at 0.04-0.1 pfu/cell. The assays were performed in growth medium. Primer-probe set was Thermo Fisher Assay ID=AIPAEXQ. HSV-1: Strain F Street was assayed in Vero or MRCS cells and was used at 0.0005-0.004 pfu/cell in growth medium. Primer-probe set was Thermo Fisher Assay ID=AIBJZIB

HSV-1 Strain F [5] = test: Viral qPCR assay, HSV-1 in MRC5 cells; format: cell-based, Herpes Simplex Virus type 1; details: read-out: HSV1 MRC5 Cell (EC50)
Summary of the method: as §1

HSV2 [6] = test: Viral qPCR assay, HSV2 in Vero cells; format: cell-based, Herpes Simplex Virus type 2; details: read-out: HSV2 VERO Cell (EC50)
Experimental: as §2
as §2, with “gene” for “gene and of the cellular control, PPIA (Thermo Fisher Assay ID=Hs04194521_s1),”, “in” for “in separate”, “Compound effects on viral” for “Viral”, “number” for “numbers were normalized by cellular control copy number, and compound effects”

HSV2 [7] = test: Viral qPCR assay, HSV2 in MRC5 cells; format: cell-based, Herpes Simplex Virus type 2; details: read-out: HSV2 MRC5 Cell (EC50)
Summary of the method: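 EC50 from a 4-parameter fit of % effect on HSV2 genome copies, quantified by qPCR from a plasmid standard curve and normalized to infected DMSO and uninfected controls, with PPIA correction in one version. Virus-mixed Vero or MRC5 cells met 10-point 3-fold serial compound dilutions for ~72 h at 37 °C.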

VZV [8] = test: Viral qPCR assay, VZV in MeWo cells; format: cell-based, varicella zoster virus; details: read-out: VZV MEWO Cell (IC50)
Experimental: as §2
as §2, with “gene” for “gene and of the cellular control, PPIA (Thermo Fisher Assay ID=Hs04194521_s1),”, “in” for “in separate”, “Compound effects on viral” for “Viral”, “number” for “numbers were normalized by cellular control copy number, and compound effects”
as §3

[9] = Human betaherpesvirus 5, AD169, MRC5, 72 h
[10] = Human alphaherpesvirus 3, MRC5, 72 h
[11] = Human alphaherpesvirus 1, Vero, 72 h
[12] = Human alphaherpesvirus 1, MRC5, 72 h
[13] = Human alphaherpesvirus 2, Vero, 72 h
[14] = Human alphaherpesvirus 2, MRC5, 72 h
[15] = Human alphaherpesvirus 3, ~72 hrs

T2 sequence (P09252 whole entry): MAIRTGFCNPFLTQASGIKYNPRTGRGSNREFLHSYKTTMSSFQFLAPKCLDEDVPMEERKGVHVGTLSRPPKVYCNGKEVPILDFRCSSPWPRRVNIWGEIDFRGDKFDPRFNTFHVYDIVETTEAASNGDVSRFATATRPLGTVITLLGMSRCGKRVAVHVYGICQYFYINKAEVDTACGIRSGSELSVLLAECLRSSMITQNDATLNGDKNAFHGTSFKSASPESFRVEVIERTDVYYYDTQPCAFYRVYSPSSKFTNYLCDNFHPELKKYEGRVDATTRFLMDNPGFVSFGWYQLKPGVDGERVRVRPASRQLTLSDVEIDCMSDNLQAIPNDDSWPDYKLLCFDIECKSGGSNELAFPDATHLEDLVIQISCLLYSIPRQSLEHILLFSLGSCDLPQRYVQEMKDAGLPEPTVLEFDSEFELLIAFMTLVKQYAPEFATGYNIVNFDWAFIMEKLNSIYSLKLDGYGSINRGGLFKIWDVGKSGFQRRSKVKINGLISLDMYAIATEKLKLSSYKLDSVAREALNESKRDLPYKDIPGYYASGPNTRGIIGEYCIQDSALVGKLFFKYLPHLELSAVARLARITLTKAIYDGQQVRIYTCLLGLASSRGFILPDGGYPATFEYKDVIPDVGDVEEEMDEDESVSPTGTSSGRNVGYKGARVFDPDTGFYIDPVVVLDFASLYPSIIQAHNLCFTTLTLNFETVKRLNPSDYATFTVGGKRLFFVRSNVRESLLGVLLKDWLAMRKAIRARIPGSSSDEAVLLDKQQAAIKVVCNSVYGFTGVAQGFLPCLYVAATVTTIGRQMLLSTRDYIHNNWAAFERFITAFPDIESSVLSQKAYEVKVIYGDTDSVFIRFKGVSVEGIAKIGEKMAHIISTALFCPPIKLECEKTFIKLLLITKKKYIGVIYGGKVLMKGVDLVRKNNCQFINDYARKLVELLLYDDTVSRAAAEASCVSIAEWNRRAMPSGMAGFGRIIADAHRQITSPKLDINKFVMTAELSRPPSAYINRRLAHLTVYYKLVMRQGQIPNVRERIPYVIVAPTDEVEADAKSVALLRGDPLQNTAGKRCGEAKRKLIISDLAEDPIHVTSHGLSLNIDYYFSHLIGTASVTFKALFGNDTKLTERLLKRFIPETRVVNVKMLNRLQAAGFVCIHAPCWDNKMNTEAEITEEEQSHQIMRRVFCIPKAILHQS
T1 sequence (P08546 whole entry): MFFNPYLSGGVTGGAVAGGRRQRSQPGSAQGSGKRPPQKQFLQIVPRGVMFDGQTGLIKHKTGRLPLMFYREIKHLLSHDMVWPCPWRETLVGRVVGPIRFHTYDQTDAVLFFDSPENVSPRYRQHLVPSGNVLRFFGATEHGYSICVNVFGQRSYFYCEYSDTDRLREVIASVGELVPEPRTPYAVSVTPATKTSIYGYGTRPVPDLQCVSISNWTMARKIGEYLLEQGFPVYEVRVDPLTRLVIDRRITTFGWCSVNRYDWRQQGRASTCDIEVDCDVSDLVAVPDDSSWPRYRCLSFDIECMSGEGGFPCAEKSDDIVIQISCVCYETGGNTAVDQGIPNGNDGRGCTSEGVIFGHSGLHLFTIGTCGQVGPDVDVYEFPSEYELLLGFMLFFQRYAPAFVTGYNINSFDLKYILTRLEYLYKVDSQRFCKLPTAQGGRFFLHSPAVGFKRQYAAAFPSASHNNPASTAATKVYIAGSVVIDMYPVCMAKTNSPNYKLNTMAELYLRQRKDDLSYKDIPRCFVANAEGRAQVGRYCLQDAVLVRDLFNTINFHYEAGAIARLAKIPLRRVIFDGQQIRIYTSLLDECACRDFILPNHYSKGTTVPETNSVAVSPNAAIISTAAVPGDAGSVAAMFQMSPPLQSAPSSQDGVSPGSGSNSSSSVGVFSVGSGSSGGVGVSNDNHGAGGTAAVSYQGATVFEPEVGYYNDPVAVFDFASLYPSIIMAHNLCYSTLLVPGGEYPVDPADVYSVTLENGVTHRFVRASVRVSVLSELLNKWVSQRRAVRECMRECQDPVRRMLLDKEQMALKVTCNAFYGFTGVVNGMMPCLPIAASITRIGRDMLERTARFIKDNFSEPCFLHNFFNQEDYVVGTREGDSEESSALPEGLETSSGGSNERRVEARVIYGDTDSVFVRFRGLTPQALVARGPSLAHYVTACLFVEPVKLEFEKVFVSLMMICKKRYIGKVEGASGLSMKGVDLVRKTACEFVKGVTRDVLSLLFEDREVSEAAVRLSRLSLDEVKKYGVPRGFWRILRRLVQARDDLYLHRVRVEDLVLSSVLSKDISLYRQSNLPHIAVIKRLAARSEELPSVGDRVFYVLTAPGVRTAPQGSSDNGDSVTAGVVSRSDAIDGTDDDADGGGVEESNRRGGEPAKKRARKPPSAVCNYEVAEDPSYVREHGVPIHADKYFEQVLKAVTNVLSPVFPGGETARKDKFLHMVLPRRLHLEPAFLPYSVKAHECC

IC50 [1] | IC50 [2] | EC50 (HSV-1 Strain F [4]; ~72 hrs) | EC50 (HSV2 [6]; ~72 hrs) | IC50 (VZV [8]; ~72 hrs) | EC50 (HSV-1 Strain F [4]; [11]) | EC50 (HSV2 [6]; [13]) | IC50 (VZV [8]; [15]) | SMILES | EC50 (HCMV Strain AD169; MRC5 cells, ~72 hrs) | IC50 (VZV [3]; ~72 hrs) | EC50 (HSV-1 Strain F [5]; ~72 hrs) | EC50 (HSV2 [7]; ~72 hrs) | EC50 (HCMV Strain AD169; [9]) | IC50 (VZV [3]; [10]) | EC50 (HSV-1 Strain F [5]; [12]) | EC50 (HSV2 [7]; [14])
168 nM | 102 nM | 1930 nM | 2310 nM | – | – | – | – | Cn1nc(C(=O)NCc2ccc(Cl)cc2)c2c1CN(C[C@@H]1CC(F)C(=O)N1)C2 (stereo partly shown) [Compound 80] | 2780 nM | 3890 nM | 4000 nM | 2830 nM | – | – | – | –
74.2 nM | 9.1 nM | 264 nM | 422 nM | 154 nM | – | – | – | Cn1nc(C(=O)NCc2ccc(Cl)cc2)c2c1CC(C[C@H]1CCC(=O)N1)C2 (single isomer, unassigned) [Compound 129] | 1570 nM | 371 nM | 1020 nM | 384 nM | – | – | – | –
89.3 nM | 26.1 nM | – | – | – | 1520 nM | 1970 nM | – | CC(C)CN1CC(n2nc(C(=O)NCc3ccc(Cl)cc3)c3c2CC(C[C@H]2CCC(=O)N2)C3)C1 (stereo partly shown) [Compound 135] | – | – | – | – | 769 nM | 633 nM | 749 nM | 589 nM
85.8 nM | 19.7 nM | – | – | – | 1620 nM | 1060 nM | – | O=C1CC[C@H](CC2Cc3c(C(=O)NCc4ccc(Cl)cc4)nn(CCN4CCOCC4)c3C2)N1 (stereo partly shown) [Compound 133] | – | – | – | – | 805 nM | 1210 nM | 1190 nM | 557 nM
120 nM | 18.9 nM | – | – | – | 536 nM | 712 nM | 602 nM | CC(C)(O)Cn1nc(C(=O)NCc2ccc(Cl)cc2)c2c1CN(C[C@H]1CCC(=O)N1)C2 [Compound 58] | – | – | – | – | 1230 nM | – | – | –
94.1 nM | 26.9 nM | 5600 nM | 13100 nM | 478 nM | – | – | – | O=C1CC[C@@H](CN2Cc3c(C(=O)NCc4ccc(Cl)cc4)nn(C4CCC(F)(F)C4)c3C2)N1 (single isomer, unassigned) [Compound 55] | 2710 nM | – | – | – | – | – | – | –
87.4 nM | 14.9 nM | 991 nM | 584 nM | – | – | – | – | CC(C)N1CC(n2nc(C(=O)NCc3ccc(Cl)cc3)c3c2CC(C[C@H]2CCC(=O)N2)C3)C1 (stereo partly shown) [Compound 134] | 970 nM | 832 nM | 1170 nM | 545 nM | – | – | – | –
34.6 nM | 15.6 nM | – | – | – | 2580 nM | 5830 nM | 500 nM | O=C1CC[C@H](CN2Cc3c(C(=O)NCc4ccc(Cl)cc4)nn(CCC4CCOC4)c3C2)N1 (stereo partly shown) [Compound 38] | – | – | – | – | 1240 nM | – | – | –

The remaining lines, values behind:

SMILES | IC50 [1] | IC50 [2] | EC50 (HSV-1 Strain F [4]; ~72 hrs) | EC50 (HSV2 [6]; ~72 hrs) | IC50 (VZV [8]; ~72 hrs) | EC50 (HSV-1 Strain F [4]; [11]) | EC50 (HSV2 [6]; [13]) | IC50 (VZV [8]; [15]) | EC50 (HCMV Strain AD169; MRC5 cells, ~72 hrs) | IC50 (VZV [3]; ~72 hrs) | EC50 (HSV-1 Strain F [5]; ~72 hrs) | EC50 (HSV2 [7]; ~72 hrs) | EC50 (HCMV Strain AD169; [9]) | IC50 (VZV [3]; [10]) | EC50 (HSV-1 Strain F [5]; [12]) | EC50 (HSV2 [7]; [14])
O=C1CC[C@H](CN2Cc3c(C(=O)NCc4ccc(Cl)cc4)nn(CCn4ccc(Cl)n4)c3C2)N1 [Compound 36] | 8.94 nM | 5.85 nM | – | – | – | 1190 nM | 2840 nM | 102 nM | – | – | – | – | 453 nM | 856 nM | 1270 nM | 960 nM
Cn1nc(C(=O)NCc2ccc(Cl)cc2)c2c1CN(C[C@H]1CCC(=O)N1)C2 [Compound 32] | 14.1 nM | 5.68 nM | – | – | – | 381 nM | 165 nM | – | – | – | – | – | 420 nM | 418 nM | 653 nM | 500 nM
CC1(Cn2nc(C(=O)NCc3ccc(Cl)cc3)c3c2CN(C[C@H]2CCC(=O)N2)C3)COC1 [Compound 30] | 245 nM | 65.9 nM | – | – | – | 12000 nM | 16400 nM | 2350 nM | – | – | – | – | 5750 nM | – | – | –
CN(CCn1nc(C(=O)NCc2ccc(Cl)cc2)c2c1CN(C[C@H]1CCC(=O)N1)C2)C(=O)C1CCC1 [Compound 3] | 8.75 nM | 3.45 nM | – | – | – | 33300 nM | 56900 nM | 342 nM | – | – | – | – | 1260 nM | – | – | –
O=C1CC[C@H](CN2Cc3c(C(=O)NCc4ccc(Cl)cc4)nn(CC4CCCO4)c3C2)N1 (stereo partly shown) [Compound 29] | 186 nM | 57.8 nM | – | – | – | 5320 nM | 8930 nM | 258 nM | – | – | – | – | 3680 nM | – | – | –
